{"source": "paper PMC11233931", "about": "“Remodeling tumor‐associated macrophage for anti‐cancer effects by rational design of irreversible inhibition of mitogen‐activated protein kinase‐activated protein kinase 2” (MedComm, 2024)", "assay_in_all_cases": "Eurofins kinase selectivity profile against 380 other human recombinant kinases (Table S2)", "type_in_all_cases": "biochemical", "key": {"[1]": {"biological_target": "T1, 380 human recombinant protein kinases (Homo sapiens, UniProt Q13555)", "T1 construct": "purchased Eurofins (Celle Lévescault)", "T1 sequence (Q13555 whole entry)": "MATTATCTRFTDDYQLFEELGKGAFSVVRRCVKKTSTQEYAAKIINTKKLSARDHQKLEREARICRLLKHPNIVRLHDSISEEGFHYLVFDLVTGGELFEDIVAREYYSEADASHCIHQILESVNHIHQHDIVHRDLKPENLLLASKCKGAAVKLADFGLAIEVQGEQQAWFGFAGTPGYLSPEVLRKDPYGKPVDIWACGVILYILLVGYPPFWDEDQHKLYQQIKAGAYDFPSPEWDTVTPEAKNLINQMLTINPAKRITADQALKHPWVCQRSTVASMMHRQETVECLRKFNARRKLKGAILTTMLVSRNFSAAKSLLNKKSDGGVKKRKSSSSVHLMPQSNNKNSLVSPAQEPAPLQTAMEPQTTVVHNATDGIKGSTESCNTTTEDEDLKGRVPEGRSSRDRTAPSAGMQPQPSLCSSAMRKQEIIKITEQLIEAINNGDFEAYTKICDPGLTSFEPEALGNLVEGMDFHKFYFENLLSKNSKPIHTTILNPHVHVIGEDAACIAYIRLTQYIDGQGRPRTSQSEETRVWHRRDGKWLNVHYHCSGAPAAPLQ", "conditions": "CaMKIIγ(h), read-out: Inhibition rate", "summary_of_the_method": "(§1)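 Commercial selectivity screen of the test compound against a panel of 380 human recombinant protein kinases, run by an outside contractor at several compound concentrations to check whether its potency was specific for MK2.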"}, "[2]": {"biological_target": "T2, 380 human recombinant protein kinases (Homo sapiens, UniProt P43403)", "T2 construct": "purchased Eurofins (Celle Lévescault)", "T2 sequence (P43403 1-619)": "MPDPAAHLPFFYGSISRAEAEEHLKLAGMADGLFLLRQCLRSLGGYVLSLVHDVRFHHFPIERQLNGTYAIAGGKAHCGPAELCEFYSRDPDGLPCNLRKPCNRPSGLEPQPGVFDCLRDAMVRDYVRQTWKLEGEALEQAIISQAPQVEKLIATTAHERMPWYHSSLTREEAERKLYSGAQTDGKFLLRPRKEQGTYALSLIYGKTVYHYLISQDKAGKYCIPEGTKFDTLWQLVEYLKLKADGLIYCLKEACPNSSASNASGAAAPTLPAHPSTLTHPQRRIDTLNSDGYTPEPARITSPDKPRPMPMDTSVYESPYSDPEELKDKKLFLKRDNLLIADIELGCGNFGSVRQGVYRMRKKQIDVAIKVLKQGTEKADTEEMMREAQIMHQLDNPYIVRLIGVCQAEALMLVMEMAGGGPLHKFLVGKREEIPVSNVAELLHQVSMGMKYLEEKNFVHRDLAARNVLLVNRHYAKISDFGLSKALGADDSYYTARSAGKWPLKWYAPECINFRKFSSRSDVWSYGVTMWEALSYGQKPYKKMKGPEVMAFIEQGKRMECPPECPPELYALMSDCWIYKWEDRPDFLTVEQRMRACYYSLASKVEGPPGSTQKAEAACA", "conditions": "ZAP-70(h), read-out: Inhibition rate (%)", "summary_of_the_method": "as §1"}, "[3]": {"biological_target": "T3, 380 human recombinant protein kinases (Homo sapiens, UniProt Q8IYT8)", "T3 construct": "purchased Eurofins (Celle Lévescault)", "T3 sequence (Q8IYT8 1-1036)": "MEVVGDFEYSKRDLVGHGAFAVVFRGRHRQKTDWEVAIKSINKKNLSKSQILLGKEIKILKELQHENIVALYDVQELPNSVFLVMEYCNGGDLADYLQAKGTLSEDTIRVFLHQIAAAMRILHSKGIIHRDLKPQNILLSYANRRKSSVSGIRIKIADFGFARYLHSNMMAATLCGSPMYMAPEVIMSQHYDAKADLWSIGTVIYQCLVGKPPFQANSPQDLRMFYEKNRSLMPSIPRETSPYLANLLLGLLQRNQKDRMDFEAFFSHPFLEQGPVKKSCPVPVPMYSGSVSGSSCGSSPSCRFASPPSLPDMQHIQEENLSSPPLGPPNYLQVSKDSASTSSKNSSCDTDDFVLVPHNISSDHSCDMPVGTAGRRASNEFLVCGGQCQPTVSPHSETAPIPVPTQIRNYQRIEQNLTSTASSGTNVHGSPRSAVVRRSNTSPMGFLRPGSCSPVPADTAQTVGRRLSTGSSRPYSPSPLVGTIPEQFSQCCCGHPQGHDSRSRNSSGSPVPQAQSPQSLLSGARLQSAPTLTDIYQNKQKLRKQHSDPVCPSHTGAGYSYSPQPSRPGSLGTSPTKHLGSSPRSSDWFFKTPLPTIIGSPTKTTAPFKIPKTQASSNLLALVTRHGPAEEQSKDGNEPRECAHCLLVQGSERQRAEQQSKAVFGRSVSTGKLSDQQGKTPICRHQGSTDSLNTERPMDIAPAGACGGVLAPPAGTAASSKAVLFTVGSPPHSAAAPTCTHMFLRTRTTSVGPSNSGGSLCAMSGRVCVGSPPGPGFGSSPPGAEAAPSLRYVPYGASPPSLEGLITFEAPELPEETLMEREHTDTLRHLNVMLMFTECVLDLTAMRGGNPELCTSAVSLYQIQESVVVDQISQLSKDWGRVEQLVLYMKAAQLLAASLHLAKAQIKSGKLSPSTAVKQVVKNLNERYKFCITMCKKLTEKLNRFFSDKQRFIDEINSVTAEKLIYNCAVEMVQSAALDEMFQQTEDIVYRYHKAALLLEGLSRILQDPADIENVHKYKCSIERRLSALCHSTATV", "conditions": "ULK2(h), read-out: Inhibition rate (%)", "summary_of_the_method": "as §1"}, "[4]": {"biological_target": "T4, 380 human recombinant protein kinases (Homo sapiens, UniProt Q8IWQ3)", "T4 construct": "purchased Eurofins (Celle Lévescault)", "T4 sequence (Q8IWQ3 1-736)": "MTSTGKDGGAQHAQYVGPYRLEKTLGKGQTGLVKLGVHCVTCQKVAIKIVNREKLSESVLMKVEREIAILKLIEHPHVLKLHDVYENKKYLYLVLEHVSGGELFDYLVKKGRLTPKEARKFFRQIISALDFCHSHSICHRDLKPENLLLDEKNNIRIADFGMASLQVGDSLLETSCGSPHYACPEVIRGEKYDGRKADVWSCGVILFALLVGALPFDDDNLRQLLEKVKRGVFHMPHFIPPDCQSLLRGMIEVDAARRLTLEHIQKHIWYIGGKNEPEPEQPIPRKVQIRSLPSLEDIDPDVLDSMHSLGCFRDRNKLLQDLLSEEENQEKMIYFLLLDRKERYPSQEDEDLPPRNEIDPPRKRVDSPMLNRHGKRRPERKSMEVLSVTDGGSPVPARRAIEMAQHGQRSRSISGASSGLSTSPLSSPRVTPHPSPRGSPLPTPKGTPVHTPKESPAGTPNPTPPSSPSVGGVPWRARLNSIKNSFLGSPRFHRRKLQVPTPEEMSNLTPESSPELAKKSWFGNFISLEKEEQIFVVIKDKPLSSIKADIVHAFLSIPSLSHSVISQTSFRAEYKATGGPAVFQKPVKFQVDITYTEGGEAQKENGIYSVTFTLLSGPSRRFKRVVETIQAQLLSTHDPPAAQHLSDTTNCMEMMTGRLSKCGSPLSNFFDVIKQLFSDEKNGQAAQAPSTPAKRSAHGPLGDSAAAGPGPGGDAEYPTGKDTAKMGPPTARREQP", "conditions": "BrSK2(h), read-out: Inhibition rate", "summary_of_the_method": "as §1"}}, "data": [{"smiles": "C=CC(=O)Nc1cc(-c2cc(-c3cc4c([nH]3)CCNC4=O)ccn2)ccc1OC(F)(F)F", "note": "[compound 11]", "values": [{"measurement": "inhibition at 0.01 µM", "setting": "[1]; 10 nM", "result": -5, "unit": "%"}, {"measurement": "inhibition at 0.1 µM", "setting": "[1]; 100 nM", "result": 6, "unit": "%"}, {"measurement": "inhibition at 1 µM", "setting": "[1]; 1000 nM", "result": 18, "unit": "%"}, {"measurement": "inhibition at 0.01 µM", "setting": "[2]; 10 nM", "result": 8, "unit": "%"}, {"measurement": "inhibition at 0.1 µM", "setting": "[2]; 100 nM", "result": 0, "unit": "%"}, {"measurement": "inhibition at 1 µM", "setting": "[2]; 1000 nM", "result": -13, "unit": "%"}, {"measurement": "inhibition at 0.01 µM", "setting": "[3]; 10 nM", "result": 6, "unit": "%"}, {"measurement": "inhibition at 0.1 µM", "setting": "[3]; 100 nM", "result": 6, "unit": "%"}, {"measurement": "inhibition at 1 µM", "setting": "[3]; 1000 nM", "result": 5, "unit": "%"}, {"measurement": "inhibition at 0.01 µM", "setting": "[4]; 10 nM", "result": -2, "unit": "%"}, {"measurement": "inhibition at 0.1 µM", "setting": "[4]; 100 nM", "result": 6, "unit": "%"}, {"measurement": "inhibition at 1 µM", "setting": "[4]; 1000 nM", "result": 26, "unit": "%"}]}]}
